Results published in patent US7381572B2, “Reagents and procedures for multi-label high-specificity labeling” (Rutgers, The State University of New Jersey, priority 2004, dated 2008).
Read-outs that look alike come from different tables or passages of the source. No end group written: not given here.

Key:
[1] = Multicolor, multisite labeling of doubly-tetracysteine-tagged proteins (SARPs), crude lysate; format: binding, Escherichia coli; conditions: for FlAsH-Cy5 FRET within the resulting complex (SARP detection): excitation 488 nm, emission ≧680 nm; for co-labeling by FlAsH and Cy5-(SO3)2-(PAEDT)2: ~1 μM doubly-tagged protein
Experimental: Multicolor, multisite labeling of doubly-tetracysteine-tagged proteins—yielding self-assembled relay probes, SARPs—was assessed in electrophoretic-mobility-shift assays. DTT (1 μl of 125 mM solution) was added to 23 μl crude lysate containing doubly-tetracysteine-tagged protein (˜1 μM; Example 14.2), and samples were incubated 30 min at 25° C. Cy5-(SO3)2-(PAEDT)2 (Example 9.2; 0.5 μl of 1 mM solution in DMF) was added, and samples were incubated 20 min at 25° C. FlAsH (Griffin, et al. (2000) Methods Enzmol. 327, 565-578; 0.5 μl of 0.1 mM solution in DMF) was then added, and samples were further incubated 5 min at 25° C.

[2] = Multicolor, multisite labeling, pairs of peptides: FlAsH detection; format: binding; conditions: pair of G1^0 with the named peptide; both probes present; 5, 10, 20 mM DTT
Experimental: (§1) Multicolor, multisite labeling was assessed in electrophoretic-mobility-shift assays. Pairs of tetracysteine-tagged peptides—one neutral tetracysteine-tagged peptide, and one negatively-charged tetracysteine-tagged peptide (the charge difference resulting in different electrophoretic mobilities on the gel, thus allowing the two tetracysteine-tagged peptides to be distinguished)—were analyzed. For each combination of probe and pair of tetracysteine-tagged peptides, three reactions were performed in parallel: one reaction at 5 mM DTT, one reaction at 10 mM DTT, and one reaction at 20 mM DTT. […] DTT (1 μl of 50 mM DTT for reactions at 5 mM DTT, 1 μl of 100 mM DTT for reactions at 10 mM DTT, and 1 μl of 200 mM DTT for reactions at 20 mM DTT) was added, and samples were incubated 30 min at 25° C.

[3] = Multicolor, multisite labeling, pairs of peptides: Cy5 detection; format: binding; conditions: pair of G1^0 with P3, P4, P5 or P6; both probes present; 5, 10, 20 mM DTT
Experimental: as §1

[4] = Tag-conjugate binding found by the inventors: Cy3 and Cy5 bis-propionamido-phenylarsine derivatives
[5] = Tag-conjugate interaction found by the inventors: FlAsH-EDT2; format: binding
[6] = tested on: tetracysteine peptide; conditions: initially non-fluorescent; Griffin, et al. Science (1998); cited from earlier work
[7] = format: binding; conditions: excitation 488 nm, emission ≧680 nm
[8] = Tag-conjugate interaction found by the inventors: Cy5 derivatives; format: binding
[9] = Tag-conjugate interaction found by the inventors: Cy3 derivatives; format: binding

α-CCPPPPCC—PPPPPPPPP—CCGCCN [α-SARP-P4/G1-PP9]
specificity of co-labeling and FRET-dependent detection (other proteins labeled) [1]: no other protein in the crude lysate was detectably labeled | FlAsH-Cy5 FRET within the resulting complex (SARP detection) [1]: participated in FlAsH-Cy5 FRET | co-labeling by FlAsH and Cy5-(SO3)2-(PAEDT)2 [1]: co-labeled

Ac-EWNCCPPPPPPCCN—CONH2 (Ac-EWNCCPPPPPPCCN-NH2; cysteine pairing not given here) [P6]
FlAsH labeling as % of the level of labeling of G1^0 [2]: < 10% | labeling by Cy5-(SO3)2-(PAEDT)2 in a pair of peptides [3]: labeled

Ac-EWNCCPPPPCCN—CONH2 (Ac-EWNCCPPPPCCN-NH2; cysteine pairing not given here) [P4]
FlAsH labeling as % of the level of labeling of G1^0 [2]: < 10% | labeling by Cy5-(SO3)2-(PAEDT)2 in a pair of peptides [3]: labeled

CCPPPPPPCC (target sequence) [tetracysteine peptide tag of the form CC(P)nCC]
binding of tag to Cy3 and Cy5 (bis-sulfonato) bis-propionamido-phenylarsine derivatives [4]: bind | interaction of tag with FlAsH-EDT2 [5]: not interact substantially

Ac-EWNCCPPPPPCCN—CONH2 (Ac-EWNCCPPPPPCCN-NH2; cysteine pairing not given here) [P5]
FlAsH labeling as % of the level of labeling of G1^0 [2]: < 10% | labeling by Cy5-(SO3)2-(PAEDT)2 in a pair of peptides [3]: labeled

CCPPPPCC (target sequence) [tetracysteine peptide tag of the form CC(P)nCC]
binding of tag to Cy3 and Cy5 (bis-sulfonato) bis-propionamido-phenylarsine derivatives [4]: bind | interaction of tag with FlAsH-EDT2 [5]: not interact substantially

O=C(O)c1ccccc1-c1c2ccc(=O)c([As]3SCCS3)c-2oc2c([As]3SCCS3)c(O)ccc12 [FlAsH-EDT2, 4′,5′-bis (1,3,2-dithioarsolan-2-yl)fluorescein]
fluorescence on addition of a tetracysteine peptide to displace the EDT [6]: develops bright fluorescence

Ac-EWNCCPPPPCCN-AEAAAKEAAAKEAAAKEAAAKA-NCCGCCN—CONH2 [SARP-P4/G1-HL4X]
FlAsH-Cy5 FRET within the resulting complex (SARP detection) [7]: participated in FlAsH-Cy5 FRET

α-CCPPPCC—PPPPPPPPP—CCGCCN [α-SARP-P3/G1-PP9]
specificity of co-labeling and FRET-dependent detection (other proteins labeled) [1]: no other protein in the crude lysate was detectably labeled | FlAsH-Cy5 FRET within the resulting complex (SARP detection) [1]: participated in FlAsH-Cy5 FRET | co-labeling by FlAsH and Cy5-(SO3)2-(PAEDT)2 [1]: co-labeled

CGPCCGPC [Ac—WNCGPCCGPCN—CONH2]
binding of tag to Cy5 bis-sulfonato bis-propionamido-phenylarsine or Cy5 bis-propionamido-phenylarsine [8]: bind | interaction of tag with FlAsH-EDT2 [5]: do not interact substantially

CCPPPPPCC (target sequence) [tetracysteine peptide tag of the form CC(P)nCC]
binding of tag to Cy3 and Cy5 (bis-sulfonato) bis-propionamido-phenylarsine derivatives [4]: bind | interaction of tag with FlAsH-EDT2 [5]: not interact substantially

Ac-EWNCCPPPPCCN—PPPPPPPPPPPP—NCCGCCN—CONH2 [SARP-P4/G1-PP12]
FlAsH-Cy5 FRET within the resulting complex (SARP detection) [7]: participated in FlAsH-Cy5 FRET

CCGPCC: tetracysteine peptide tag of the general form CCXXCC (target sequence)
interaction of tag with Cy5 derivatives of conjugates according to Formula (I) [8]: not interact, or interact less tightly | interaction of tag with Cy3 derivatives of conjugates according to Formula (I) [9]: interact tightly

Ac-EWNCCPPPPCCN—PPPPPPPPP—NCCGCCN—CONH2 [SARP-P4/G1-PP9]
FlAsH-Cy5 FRET within the resulting complex (SARP detection) [7]: participated in FlAsH-Cy5 FRET

CCPPPCC (target sequence) [tetracysteine peptide tag of the form CC(P)nCC]
binding of tag to Cy3 and Cy5 (bis-sulfonato) bis-propionamido-phenylarsine derivatives [4]: bind | interaction of tag with FlAsH-EDT2 [5]: not interact substantially

Ac-EWNCCPPPCCN—CONH2 (Ac-EWNCCPPPCCN-NH2; cysteine pairing not given here) [P3]
FlAsH labeling as % of the level of labeling of G1^0 [2]: < 10% | labeling by Cy5-(SO3)2-(PAEDT)2 in a pair of peptides [3]: labeled

CCPGPCC
binding of tag to Cy3 and Cy5 (bis-sulfonato) bis-propionamido-phenylarsine derivatives [4]: bind | interaction of tag with FlAsH-EDT2 [5]: not interact substantially

CGCGCGC (not fully specified (N-terminus, C-terminus); cysteine pairing not given here) [Ac—WNCGCGCGCN—CONH2, tag CGCGCGC; tested as the set A peptide that holds it]
binding of tag to Cy5 bis-sulfonato bis-propionamido-phenylarsine or Cy5 bis-propionamido-phenylarsine [8]: bind | interaction of tag with FlAsH-EDT2 [5]: do not interact substantially
